Assay [1] deals with neonatal rat cardiac myocytes. In words: Growth, morphology and apoptosis of cardiac myocytes. It is filed as cell-based. The note with it: 48 hours. As to the method: Cultured neonatal rat cardiac myocytes were known to express high levels of the M6P/IGF2R protein. The effect of RA on the growth of normal, neonatal rat cardiac myocytes was examined.
Cell Isolation and Culture For the photoaffinity labeling experiments, cardiac myocytes were isolated from 1-day-old neonatal Sprague-Dawley rats, using the Neonatal Cardiomyocyte Isolation System (Worthington). The isolated cell were cultured on Petri dishes with culture medium (F-10 nutrient mixture/10% horse serum/5% fetal bovine serum/50 μg/ml streptomycin/50 units/ml penicillin G). Cells were used for experiments after 2-6 days of culture.

Assay [2] has as its target T1, partially-purified neonatal rat serum IGF2R (Rattus norvegicus, UniProt G3V824).
T1 construct: both intact (300 kDa) and truncated (260 kDa) forms of M6P/IGF-II receptor exist in the serum; from tissue; host or cells: neonatal rat serum, FPLC Sepharose-12 fraction
In words: Competitive radioligand (10 nM [3H]RA) binding assay. The note with it: n=3, read-out: IC50 (50% inhibitory concentration) for [3H]RA binding. As to the method: Partially purified M6P/IGF-II receptors from neonatal rat serum was prepared using a Fast Protein Liquid Chromatography (FPLC) system equipped with a Sepharose-12 column (Pharmacia). The partially purified M6P/IGF2R protein was diluted in binding buffer (20 mM Tris-HCl, pH 8.0/150 mM NaCl/1mM DTT/protease inhibitors) at a concentration of 50 Ag/ml. […] Incubation was carried out at 22° C. for 2 h in the dark. After the incubation, 0.2 ml chilled charcoal-dextran suspension (charcoal/dextran/glycerol=0.5%/0.05%/20%) was added to remove the unbound ligand.

For assay [3], the target named is T2, M6P/IGF2R (300 kDa protein) (Rattus norvegicus, UniProt G3V824).
T2 construct: about 100 μg of proteins of membrane preparations or serum; from tissue; host or cells: membrane preparations of cultured neonatal Sprague-Dawley rat cardiac myocytes
In words: [3H]RA photoaffinity labeling of the 300 kDa protein. It is filed as binding. The note with it: for Inhibition of [3H]RA photolabeling/binding to M6P/IGF2R by nonradioactive competitor: 25- to 50-fold molar excess (50 μM) competitor added before photolysis. As for the experimental part: Photoaffinity Labeling Photoaffinity labeling was performed essentially according to the methods described in Bernstein et al., 1995, Proc. Natl. Acad. Sci. USA 92:654-658. […] After the ethanol has been evaporated with nitrogen, about 100 μg of proteins of membrane preparations or serum [serum proteins were first concentrated using a Biomax-100K Centrifugal Filter Device (Millipore)] were then added to each tube. The final volume was adjusted to 100 μl with 50 mM Tris buffer (pH 7.4) containing protease inhibitors (5 mM EDTA, 5 mM EGTA, 0.1 mM phenylmethylsulfonyl fluoride, 0.05% NaN3, 20 μg/ml aprotinin, 10 μg/ml benzamidine and 12.5 μg/ml chymostatin) and 50 μM butylated hydroxytoluene (a radical scavenger, used to minimize the non-specific labeling) for a final concentration of 1 μM labeled retinoic acid. The samples were incubated at room temperature with agitation for 1 hour in the dark. The samples were exposed to an intense 365-nm UV light source (Model B 100AP, UPland, CA) for 7 min. […] To remove the non-covalently bound ligands, the photolabeled samples were extracted with chloroform/methanol (2:1), or washed once by centrifugation for membrane samples only).
Fluorography The resultant protein pellets were dissolved in SDS sample buffer containing 5% β-mercapto-ethanol and heated at 100° C. for 5 min. These samples were then run on 7% polyacrylamide gels (30:0.2, acrylamide/bisacrylamide ratio), using conventional SDS/PAGE techniques. After electrophoresis, the gels were stained with Coomassie blue, soaked in Amplifier (Amersham, Life Science) for 30 minutes, dried by a vacuum gel dryer and then exposed to Hyperfilm-TM X-ray films (Amersham, Life Science) at […] for 1-3 days.

Another assay relates to P388D1 cells. Briefly: Morphology, growth and apoptosis of P388D1 cells overexpressing M6P/IGF2R. It is filed as cell-based, mouse. The following applies: P388D1 cells overexpressing M6P/IGF2R. As for the experimental part:
FIG. 10 is a graph showing the effect of RA treatment on growth rate of P388D1 cells overexpressing M6P/IGF2R protein and P388D1 controls. Open circles, vector control cells without RA treatment; closed circles, vector control cells with 1 μM RA treatment; open triangles, overexpressing cells without RA treatment; closed triangles overexpressing cells with 1 μM RA treatment.
We examined M6P/IGF2R-mediated effects of RA in mouse macrophage P388D1 cells, which are the best characterized cells that lack the M6P/IGF2R protein.

Another assay addresses M6P/IGF2R (Rattus norvegicus, UniProt G3V824). Briefly: Immunofluorescence of M6P/IGF2R distribution in fibroblasts. It is filed as cell-based. Set-up: endogenous in cells; host or cells: primary neonatal rat cardiac fibroblasts. The following applies: RAR antagonist with RA. The source says:
FIGS. 7A and 7B are photo micrographs showing the effect of retinoic acid on the distribution of the M6P/IGF2R in neonatal rat fibroblasts. […] The receptor was concentrated primarily in the perinuclear structure (probably the TGN area). […] Bar represents 4 μm.
To determine if RA affects intracellular trafficking of the M6P/IGF2R, distribution of the receptor in neonatal rat fibroblasts with or without RA treatment was visualized by immunofluorescence. The primary antibody used to target the receptor was a polyclonal anti-rat M6P/IGF2R (full length) rabbit IgG with high specificity. A non-immuno-rabbit IgG was used as a negative control. As indicated by fluorescence (FIGS. 7A and 7B), the M6P/IGF2R in the fibroblasts is normally concentrated primarily in the perinuclear structure (probably the TGN). […] This indicated a potentiating effect of RA on the trafficking of the M6P/IGF2R from the TGN to the endosomes/lysosomes.
(§1) Intracellular Trafficking Materials Retinoic acid was obtained from Sigma Chem. Co. (St. Louis, Mo.). The synthetic retinoids used (AGN193109, TTNPB) were produced by Allergan Inc. (Irvine, Calif.). Stably-transfected P388D1 cells re-expressing the M6P/IGF2R were provided by Dr. William S. Sly (St. Louis University). The rabbit polyclonal antibody against the rat M6P/IGF-II receptor was a gift from Dr. R.G. MacDonald (University of Nebraska). […]

Another assay deals with neonatal rat fibroblasts. In words: Immunofluorescence of cathepsin B distribution in fibroblasts. The following applies: RAR antagonist with RA. The format is cell-based.
Text: FIGS. 8A and 8B are photomicrographs showing effect of retinoic acid on the distribution of cathepsin B in neonatal rat fibroblasts. […] The enzyme was found mainly in the perinuclear area. […] Bar represents 4 μm.
Since biosynthetic transport of lysosomal enzymes from the TGN to endosomes/lysosomes is mainly mediated by the M6P/IGF2R (Sohar et al., 1998, Biochem. J. 330:903-908), an enhanced trafficking of the receptor should lead to an increased translocation of the M6P-containing lysosomal enzymes from the TGN to lysosomes. To test this, we examined the effect of RA on the intracellular distribution of cathepsin B, a lysosomal protease known to be transported in a M6P-dependent manner in fibroblasts (Hanewinkel et al., 1987, J. Diol. Chem. 262:12351-12355). […] The distribution was similar to that of M6P/IGF2R (shift from perinuclear area to cytoplasmic vesicles throughout the cytoplasm).
as §1

Experimental findings from US6596500B1, “Binding of retinoids to M6P/IGF-II receptor” (The General Hospital Corporation, priority 1998, dated 2003) are described below.

T2 sequence (G3V824 36-2481): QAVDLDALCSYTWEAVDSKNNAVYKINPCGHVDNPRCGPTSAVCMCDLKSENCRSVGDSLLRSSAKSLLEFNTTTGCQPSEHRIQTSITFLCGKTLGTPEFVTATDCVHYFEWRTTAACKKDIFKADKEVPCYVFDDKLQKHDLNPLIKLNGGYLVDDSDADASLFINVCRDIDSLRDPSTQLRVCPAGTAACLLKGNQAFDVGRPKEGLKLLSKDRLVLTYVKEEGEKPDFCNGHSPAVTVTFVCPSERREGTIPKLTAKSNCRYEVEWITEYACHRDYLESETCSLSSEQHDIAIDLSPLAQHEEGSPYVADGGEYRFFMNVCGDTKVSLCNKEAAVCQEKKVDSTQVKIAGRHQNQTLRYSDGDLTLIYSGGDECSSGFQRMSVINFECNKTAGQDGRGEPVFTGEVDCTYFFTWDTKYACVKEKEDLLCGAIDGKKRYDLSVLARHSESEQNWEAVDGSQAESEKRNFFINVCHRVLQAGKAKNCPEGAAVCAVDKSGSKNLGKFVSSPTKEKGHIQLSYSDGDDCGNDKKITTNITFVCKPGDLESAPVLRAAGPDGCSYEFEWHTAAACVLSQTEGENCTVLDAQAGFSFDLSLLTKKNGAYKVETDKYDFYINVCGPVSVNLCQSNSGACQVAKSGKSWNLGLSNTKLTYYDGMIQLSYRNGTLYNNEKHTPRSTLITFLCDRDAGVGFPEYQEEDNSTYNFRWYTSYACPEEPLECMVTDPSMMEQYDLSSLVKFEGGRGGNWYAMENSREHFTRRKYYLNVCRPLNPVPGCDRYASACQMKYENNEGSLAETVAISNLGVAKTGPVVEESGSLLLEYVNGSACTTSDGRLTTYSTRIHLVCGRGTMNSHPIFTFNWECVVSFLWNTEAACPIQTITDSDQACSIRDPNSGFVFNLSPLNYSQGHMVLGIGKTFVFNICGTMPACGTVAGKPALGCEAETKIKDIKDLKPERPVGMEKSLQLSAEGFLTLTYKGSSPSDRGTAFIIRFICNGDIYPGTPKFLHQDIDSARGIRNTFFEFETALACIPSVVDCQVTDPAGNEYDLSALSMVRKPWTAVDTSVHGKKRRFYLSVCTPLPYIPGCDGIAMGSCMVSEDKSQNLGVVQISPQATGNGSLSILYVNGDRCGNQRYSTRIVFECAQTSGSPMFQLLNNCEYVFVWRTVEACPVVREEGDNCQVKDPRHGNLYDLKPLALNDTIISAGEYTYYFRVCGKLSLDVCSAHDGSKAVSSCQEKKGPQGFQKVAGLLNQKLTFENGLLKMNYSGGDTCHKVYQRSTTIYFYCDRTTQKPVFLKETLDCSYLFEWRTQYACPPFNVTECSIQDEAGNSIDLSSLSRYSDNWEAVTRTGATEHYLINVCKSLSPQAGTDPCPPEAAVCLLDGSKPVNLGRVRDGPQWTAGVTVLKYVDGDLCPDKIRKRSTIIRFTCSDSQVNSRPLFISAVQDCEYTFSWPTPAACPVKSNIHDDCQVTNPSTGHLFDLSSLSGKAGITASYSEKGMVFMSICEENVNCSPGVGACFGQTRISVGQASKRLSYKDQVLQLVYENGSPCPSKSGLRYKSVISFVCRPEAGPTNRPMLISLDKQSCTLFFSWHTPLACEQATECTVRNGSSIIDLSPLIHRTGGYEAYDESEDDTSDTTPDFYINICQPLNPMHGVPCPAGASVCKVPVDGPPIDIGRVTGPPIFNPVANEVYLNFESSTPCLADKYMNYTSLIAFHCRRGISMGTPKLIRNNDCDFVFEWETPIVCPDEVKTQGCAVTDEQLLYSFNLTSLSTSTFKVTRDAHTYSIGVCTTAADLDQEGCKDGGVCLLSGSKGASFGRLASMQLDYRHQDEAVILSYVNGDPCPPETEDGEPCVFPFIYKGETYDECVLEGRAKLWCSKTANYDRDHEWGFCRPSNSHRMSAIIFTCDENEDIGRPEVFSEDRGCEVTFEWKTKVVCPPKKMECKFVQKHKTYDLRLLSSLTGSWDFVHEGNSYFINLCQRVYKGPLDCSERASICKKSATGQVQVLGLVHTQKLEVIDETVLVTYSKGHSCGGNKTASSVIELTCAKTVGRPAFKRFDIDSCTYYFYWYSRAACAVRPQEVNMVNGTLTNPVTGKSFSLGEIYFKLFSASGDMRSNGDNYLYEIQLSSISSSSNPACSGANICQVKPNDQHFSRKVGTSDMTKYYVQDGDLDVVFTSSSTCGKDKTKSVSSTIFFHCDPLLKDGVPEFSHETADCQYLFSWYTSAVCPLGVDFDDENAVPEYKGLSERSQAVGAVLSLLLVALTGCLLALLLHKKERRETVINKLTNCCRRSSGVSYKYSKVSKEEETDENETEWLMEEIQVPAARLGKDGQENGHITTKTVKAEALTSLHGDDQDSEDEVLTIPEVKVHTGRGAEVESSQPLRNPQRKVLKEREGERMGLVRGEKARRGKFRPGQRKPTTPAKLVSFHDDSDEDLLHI
T1 sequence (G3V824 36-2481): as above
Sequence of M6P/IGF2R (G3V824 36-2481): as above

With `CC1=C(/C=C/C(C)=C/C=C/C(C)=C/CO)C(C)(C)CCC1` [retinol], the “Cell morphology and growth” value in assay [1] was “exerted effects on cell morphology and growth similar to the effects of RA”. Further, the IC50 in assay [2] was found to be 120 ± 18 nM. Further, the “Inhibition of [3H]RA photolabeling/binding to M6P/IGF2R by nonradioactive competitor” value in assay [3] is “inhibited the binding”. Further, in the assay with P388D1 cells, the “Induction of the RA-like effects on morphology, proliferation and apoptosis” value is reported as “similarly induced”.

With retinol acetate, the “Cell morphology and growth” value in assay [1] was “exerted effects on cell morphology and growth similar to the effects of RA”. Moreover, the IC50 in assay [2] was found to be 135 ± 30 nM. In addition, the “Inhibition of [3H]RA photolabeling/binding to M6P/IGF2R by nonradioactive competitor” value in assay [3] is on record as “inhibited the binding”. The “Induction of the RA-like effects on morphology, proliferation and apoptosis” value in the assay on P388D1 cells is on record as “similarly induced”.

With `O=C[C@@H](O)[C@@H](O)[C@H](O)[C@H](O)COP(=O)(O)O` [M6P, mannose 6-phosphate], the “[3H]RA labeling of M6P/IGF-II receptor, presence vs absence of M6P” value in assay [3] (5 mM M6P, measured by NIH Image, n=3) is 2 fold. In addition, in assay [3] ([3H]RA affinity photolabeling), the “Enhancement of cross-linking of [3H]RA to M6P/IGF-II receptor” value was “significantly enhanced” and the “Inhibition of [3H]RA binding to M6P/IGF-II receptor by other receptor ligands” value is on record as “Neither M6P nor IGF-II inhibited”.

As for `Cc1ccc(C2=CCC(C)(C)c3ccc(C#Cc4ccc(C(=O)O)cc4)cc32)cc1` [AGN193109], at M6P/IGF2R, the “Blocking of RA effect on M6P/IGF2R distribution by RAR antagonist” value was “neither blocked by the RAR antagonist”. The “Blocking of RA effect on cathepsin B distribution by RAR antagonist” value in the assay with neonatal rat fibroblasts was “neither blocked by the RAR antagonist”.

For `CC1=C(/C=C/C(C)=C/C=C/C(C)=C/C=O)C(C)(C)CCC1` [retinal], the “Induction of the RA-like effects on morphology, proliferation and apoptosis” value in the assay on P388D1 cells is on record as “similarly induced”.

In the case of `CC1=C(/C=C/C(C)=C\C=C\C(C)=C\C(=O)O)C(C)(C)CCC1` [9-cis-RA, 9-cis-retinoic acid], in assay [3], the “Inhibition of [3H]RA photolabeling/binding to M6P/IGF2R by nonradioactive competitor” value is listed as “inhibited the binding”.

Turning to `CC1=C(/C=C/C(C)=C/C=C/C(C)=C\C(=O)O)C(C)(C)CCC1` [13-cis-RA, 13-cis-retinoic acid], the “Inhibition of [3H]RA photolabeling/binding to M6P/IGF2R by nonradioactive competitor” value in assay [3] is recorded as “inhibited the binding”.

As to “IGF-II: insulin-like growth factor II (a protein), ligand of the M6P/IGF-II receptor”, in assay [3] ([3H]RA affinity photolabeling), the “Inhibition of [3H]RA binding to M6P/IGF-II receptor by other receptor ligands” value is recorded as “Neither M6P nor IGF-II inhibited”.
